Like-named read-outs stand apart in the source and are kept apart here.
Experiments:
[1] = system: Aedes aegypti; conditions: for LC50: On camouflage military fabric
Description: The mortality rate is measured after a 2-hour, 4-hour and 24-hour exposure period. Ataxic mosquitoes are considered dead.
(§1) The ability of Ae. aegypti to recover from insecticidal exposure is also investigated. After a 2-hour exposure, each set of Ae. aegypti is transferred into a separate jar. The mortality rate is measured at two time intervals: first, immediately at the transfer (2 hours after the initial exposure), and second, 22 hours after the transfer (24 hours after the initial exposure).
The mortality rate and the LC values are determined using the same procedures as is illustrated in Example 2.

[2] = system: Stomoxys calcitrans
Description: Briefly, one Stomoxys calcitrans strain is collected from the University of Florida dairy unit in Alachua County, Florida, U.S.A. (“the Alachua strain”) and subsequently reared at 27° C. in the laboratory of the Entomology and Nematology Department, University of Florida.
Each strain is divided into four sets: three sets as the experimental treatments and the other set as the control. […] The control set is not exposed to any chemical compound. The mortality rate is measured after a 2-hour, 4-hour, and 24-hour period. Ataxic flies are considered dead. The mortality rate and the LC values are determined using the same procedures as is illustrated in Example 2.

[3] = system: Stomoxys calcitrans; remark: listed apart in the source
Description: Briefly, each fly strain is divided into eight sets: three sets as the experiment, four sets as the positive control, and one set as the negative control. Flies are assayed on unpainted plywood panel boards that have been previously exposed to natural summer weather conditions for at least 10 days. […] The positive control set is treated with permethrin, geranyl acetone, rosalva or citronellol. The negative control set is treated with water. The formulation is applied at a uniform rate of 7.5 ml per 225 cm^2, sufficient to cover the entire panel without dripping. Subsequently, the treated panel boards are dried for about an hour.
In each set, 20 adult flies are placed onto the panel boards. Flies are secured with wooden embroidery hoops, covered with a coarse mesh screen cloth previously sprayed with the respective formulation. After 4 hours, flies are transferred into a clean jar. The mortality rate is measured 24 hours after the transfer, and is determined using the same procedures as are illustrated in Example 2.
Plywood panels (225 cm^2) were treated with chemicals at a rate of 1.67 mgcm^−2. Panels were treated on day 0 and held until exposure on post-treatment day. Mosquitoes were exposed to chemicals for 2 h, and mortality rate was assessed 24 h after initial exposure. Control contained formulation ingredients without semiochemicals.

[4] = system: Field-collected Musca domestica
Description: Briefly, one Musca domestica strain is collected from the University of Florida dairy unit in Alachua County, Florida, U.S.A. (“the Alachua strain”). The other Musca domestica strain is collected from a dairy farm in Gilchrist County, Florida, U.S.A. (“the Gilchrist strain”). Both strains are colonized adults, and are subsequently reared at 27° C. in the laboratory of the Entomology and Nematology Department, University of Florida.
The positive control is exposed to serial dilutions of permethrin. The negative control is not exposed to any chemical compound. 1 mL of insecticide was dissolved in acetone (concentrations between 0.5 and 20 mg mL^−1) in a 60 mL glass jar having a 67.86 cm^2 inside surface area (Wheaton, Millville, N.J.). Jars were allowed to dry for 1 h prior to fly introduction. Flies were held in jars for 2, 4 and 24 h, and fly mortality rate was scored at that time. Sugar water (10%) was provided in all assays, unless stated otherwise. The mortality rate is measured after a 2-hour, 4-hour, and 24-hour period. Ataxic flies are considered dead. The mortality rate and the LC values are determined using the same procedures as is illustrated in Example 2.

[5] = system: Susceptible Musca domestica; assay: Glass jar contact bioassay, susceptible (laboratory) house flies; conditions: for decline in toxicity after a 24-hour holding period subsequent to an initial 2-hour exposure: 2 h transferred vs 2 h constant
Description: Briefly, adult house flies, Musca domestica, are obtained from strains that have been reared in the laboratory of the Entomology and Nematology Department, University of Florida. […] The positive control is exposed to serial dilutions of permethrin. The negative control is not exposed to any chemical compound. The mortality rate is measured after 2-hour, 4-hour, and 24-hour periods. Ataxic flies are considered dead.
as §1, with “ability of house flies to recover” for “ability of Ae. aegypti to recover”, “set of flies is transferred” for “set of Ae. aegypti is transferred”, “a separate glass jar. The” for “a separate jar. The”
The mortality rate is analyzed using the PROBIT model. The data is adjusted based on the mortality rate in the control set using the Abbott's transformation, and the percent mortality is further analyzed based on ANOVA measurement. The experiment is repeated at least three times. The data is discarded if the mortality rate in the control set exceeds 10%. The LC50 and LC90 values are further determined using the SAS (Cary, N.C., USA) statistical software. For each chemical compound, at least 1280 flies are examined.

[6] = Alachua strain, 2 h constant exposure
[7] = Alachua strain, 4 h constant exposure
[8] = Alachua strain, 24 h constant exposure
[9] = Gilchrist strain, 2 h constant exposure
[10] = Gilchrist strain, 4 h constant exposure
[11] = Gilchrist strain, 24 h constant exposure
[12] = 2 h constant exposure, glass jar
[13] = 2 h exposure, transferred to clean jars, mortality 24 h after initial exposure
[14] = 4 h constant exposure, glass jar

SMILES | LC90 ([2]; 2 h constant exposure) | LC90 ([2]; 4 h constant exposure) | LC90 ([2]; 24 h constant exposure) | LC90 [4, 6] | LC90 [4, 7] | LC90 [4, 8] | LC90 [4, 9] | LC90 [4, 10] | LC90 [4, 11] | LC90 [5, 12] | LC90 [5, 13] | decline in toxicity after a 24-hour holding period subsequent to an initial 2-hour exposure [5] | LC90 [5, 14] | other results
CC1(C)CCCC2=C1CC(C=O)CC2 (centres unmarked) [Cyclemone A, 2-naphthaldehyde, 1,2,3,4,5,6,7,8-octahydro-8,8-dimethyl] | 31.31 μg cm^−2 | 32.38 μg cm^−2 | 27.10 μg cm^−2 | 74.41 μg cm^−2 | 69.96 μg cm^−2 | 51.09 μg cm^−2 | 72.60 μg cm^−2 | 79.28 μg cm^−2 | 51.58 μg cm^−2 | 69.90 μg cm^−2 | 68.95 μg cm^−2 | no decline in toxicity | 71.44 μg cm^−2 | LC50 ([1]; 2 h constant exposure): 26.03 μg cm^−2; LC50 ([1]; 2 h exposure then transferred, mortality 24 h after initial exposure): 41.13 μg cm^−2; LC50 ([1]; 4 h constant exposure): 17.23 μg cm^−2; mortality rate ([1]; camouflage military fabric, after a 24-hour exposure): ~100%; LC50 ([2]; 2 h constant exposure): 19.52 μg cm^−2; LC50 ([2]; 4 h constant exposure): 18.18 μg cm^−2; LC50 ([2]; 24 h constant exposure): 14.82 μg cm^−2; % mortality ([3]; S. calcitrans, formulation on plywood panels at 1.67 mg cm^−2, mortality 24 h after): 100.00a %; LC50 [4, 6]: 54.46 μg cm^−2; LC50 [4, 7]: 52.60 μg cm^−2; LC50 [4, 8]: 32.29 μg cm^−2; LC50 [4, 9]: 54.11 μg cm^−2; LC50 [4, 10]: 46.52 μg cm^−2; LC50 [4, 11]: 32.32 μg cm^−2; LC50 [5, 12]: 48.24 μg cm^−2; LC50 [5, 13]: 47.29 μg cm^−2; LC50 [5, 14]: 44.52 μg cm^−2; mortality rate ([5]; after 24-hour exposure): ~100%
C/C=C/C(=O)C1=C(C)CCCC1(C)C [Beta damascone, beta damascone] | 34.57 μg cm^−2 | 29.68 μg cm^−2 | 20.33 μg cm^−2 | 136.39 μg cm^−2 | 124.69 μg cm^−2 | 47.00 μg cm^−2 | 126.00 μg cm^−2 | 70.59 μg cm^−2 | 56.21 μg cm^−2 | 78.46 μg cm^−2 | 74.63 μg cm^−2 | no decline in toxicity | 53.59 μg cm^−2 | mortality rate ([1]; in vivo): ~100%; mortality rate ([3]; in vivo): 99-100%; mortality rate ([5]; in vivo): ~100%
